Measured values reported in ChEMBL document CHEMBL5550178, “Synthesis and anticancer properties of novel dolastatin 10 analogs featuring five-membered heterocyclic rings with a linkable group at the C-terminus” (Bioorg Med Chem, 2024).
Activity calls are given as the source filed them. No cut-off for these calls is given here.

What was measured:
PANC-1 = assay: Cytotoxicity against human PANC-1 cells assessed as inhibition of cell growth measured after 8 days by XTT cell viability assay; assay type: functional, cell-based; details: PANC-1, 192 h
MDA-MB-231 = assay: Cytotoxicity against human MDA-MB-231 cells assessed as inhibition of cell growth measured after 8 days by XTT cell viability assay; assay type: functional, cell-based; details: MDA-MB-231, 192 h
NCI-H1299 = assay: Cytotoxicity against human NCI-H1299 cells assessed as inhibition of cell growth measured after 8 days by XTT cell viability assay; assay type: functional, cell-based; details: NCI-H1299, 192 h
PC-3 [1] = assay: Cytotoxicity against human PC-3 cells assessed as inhibition of cell growth measured after 8 days by XTT cell viability assay; assay type: functional, cell-based; details: PC-3, 192 h
[2] = Cytotoxicity against human Fibroblast cells assessed as inhibition of cell growth measured after 8 days by XTT cell viability assay; assay type: toxicity, cell-based
PC-3 [3] = assay: Induction of cell cycle arrest in human PC-3 cells assessed as accumulation of cells at G1/G0 phase at 1 nM measured after 4 days by PI staining based flow cytometry analysis (reference value: 78.3%); assay type: functional; details: time 4 day
PC-3 [4] = assay: Induction of cell cycle arrest in human PC-3 cells assessed as accumulation of cells at G1/G0 phase at 50 nM measured after 4 days by PI staining based flow cytometry analysis (reference value: 78.3%); assay type: functional; details: time 4 day
PC-3 [5] = assay: Induction of cell cycle arrest in human PC-3 cells assessed as accumulation of cells at G1/G0 phase at 1000 nM measured after 4 days by PI staining based flow cytometry analysis (reference value: 78.3%); assay type: functional; details: time 4 day
PC-3 [6] = assay: Induction of cell cycle arrest in human PC-3 cells assessed as accumulation of cells at S phase at 1 nM measured after 4 days by PI staining based flow cytometry analysis (reference value: 9.87%); assay type: functional; details: time 4 day
PC-3 [7] = assay: Induction of cell cycle arrest in human PC-3 cells assessed as accumulation of cells at S phase at 50 nM measured after 4 days by PI staining based flow cytometry analysis (reference value: 9.87%); assay type: functional; details: time 4 day
PC-3 [8] = assay: Induction of cell cycle arrest in human PC-3 cells assessed as accumulation of cells at S phase at 1000 nM measured after 4 days by PI staining based flow cytometry analysis (reference value: 9.87%); assay type: functional; details: time 4 day
PC-3 [9] = assay: Induction of cell cycle arrest in human PC-3 cells assessed as accumulation of cells at G2/M phase at 1 nM measured after 4 days by PI staining based flow cytometry analysis (reference value: 11.9%); assay type: functional; details: time 4 day
PC-3 [10] = assay: Induction of cell cycle arrest in human PC-3 cells assessed as accumulation of cells at G2/M phase at 50 nM measured after 4 days by PI staining based flow cytometry analysis (reference value: 11.9%); assay type: functional; details: time 4 day
PC-3 [11] = assay: Induction of cell cycle arrest in human PC-3 cells assessed as accumulation of cells at G2/M phase at 1000 nM measured after 4 days by PI staining based flow cytometry analysis (reference value: 11.9%); assay type: functional; details: time 4 day
PC-3 [12] = assay: Induction of cell cycle arrest in human PC-3 cells assessed as accumulation of cells at G1/G0 phase at 1 nM measured after 6 days by PI staining based flow cytometry analysis (reference value: 70.7%); assay type: functional; details: time 6 day
PC-3 [13] = assay: Induction of cell cycle arrest in human PC-3 cells assessed as accumulation of cells at G1/G0 phase at 50 nM measured after 6 days by PI staining based flow cytometry analysis (reference value: 70.7%); assay type: functional; details: time 6 day
PC-3 [14] = assay: Induction of cell cycle arrest in human PC-3 cells assessed as accumulation of cells at G1/G0 phase at 1000 nM measured after 6 days by PI staining based flow cytometry analysis (reference value: 70.7%); assay type: functional; details: time 6 day
PC-3 [15] = assay: Induction of cell cycle arrest in human PC-3 cells assessed as accumulation of cells at S phase at 1 nM measured after 6 days by PI staining based flow cytometry analysis (reference value: 14.4%); assay type: functional; details: time 6 day
PC-3 [16] = assay: Induction of cell cycle arrest in human PC-3 cells assessed as accumulation of cells at S phase at 50 nM measured after 6 days by PI staining based flow cytometry analysis (reference value: 14.4%); assay type: functional; details: time 6 day
PC-3 [17] = assay: Induction of cell cycle arrest in human PC-3 cells assessed as accumulation of cells at S phase at 1000 nM measured after 6 days by PI staining based flow cytometry analysis (reference value: 14.4%); assay type: functional; details: time 6 day
PC-3 [18] = assay: Induction of cell cycle arrest in human PC-3 cells assessed as accumulation of cells at G2/M phase at 1 nM measured after 6 days by PI staining based flow cytometry analysis (reference value: 15.8%); assay type: functional; details: time 6 day
PC-3 [19] = assay: Induction of cell cycle arrest in human PC-3 cells assessed as accumulation of cells at G2/M phase at 50 nM measured after 6 days by PI staining based flow cytometry analysis (reference value: 15.8%); assay type: functional; details: time 6 day
PC-3 [20] = assay: Induction of cell cycle arrest in human PC-3 cells assessed as accumulation of cells at G2/M phase at 1000 nM measured after 6 days by PI staining based flow cytometry analysis (reference value: 15.8%); assay type: functional; details: time 6 day
PC-3 [21] = assay: Induction of cell cycle arrest in human PC-3 cells assessed as accumulation of cells at G1/G0 phase at 1 nM measured after 8 days by PI staining based flow cytometry analysis (reference value: 64.6%); assay type: functional; details: time 8 day
PC-3 [22] = assay: Induction of cell cycle arrest in human PC-3 cells assessed as accumulation of cells at G1/G0 phase at 50 nM measured after 8 days by PI staining based flow cytometry analysis (reference value: 64.6%); assay type: functional; details: time 8 day
PC-3 [23] = assay: Induction of cell cycle arrest in human PC-3 cells assessed as accumulation of cells at G1/G0 phase at 1000 nM measured after 8 days by PI staining based flow cytometry analysis (reference value: 64.6%); assay type: functional; details: time 8 day
PC-3 [24] = assay: Induction of cell cycle arrest in human PC-3 cells assessed as accumulation of cells at S phase at 1 nM measured after 8 days by PI staining based flow cytometry analysis (reference value: 23.9%); assay type: functional; details: time 8 day
PC-3 [25] = assay: Induction of cell cycle arrest in human PC-3 cells assessed as accumulation of cells at S phase at 50 nM measured after 8 days by PI staining based flow cytometry analysis (reference value: 23.9%); assay type: functional; details: time 8 day
PC-3 [26] = assay: Induction of cell cycle arrest in human PC-3 cells assessed as accumulation of cells at S phase at 1000 nM measured after 8 days by PI staining based flow cytometry analysis (reference value: 23.9%); assay type: functional; details: time 8 day
PC-3 [27] = assay: Induction of cell cycle arrest in human PC-3 cells assessed as accumulation of cells at G2/M phase at 1 nM measured after 8 days by PI staining based flow cytometry analysis (reference value: 12.4%); assay type: functional; details: time 8 day
PC-3 [28] = assay: Induction of cell cycle arrest in human PC-3 cells assessed as accumulation of cells at G2/M phase at 50 nM measured after 8 days by PI staining based flow cytometry analysis (reference value: 12.4%); assay type: functional; details: time 8 day
PC-3 [29] = assay: Induction of cell cycle arrest in human PC-3 cells assessed as accumulation of cells at G2/M phase at 1000 nM measured after 8 days by PI staining based flow cytometry analysis (reference value: 12.4%); assay type: functional; details: time 8 day
PC-3 [30] = assay: Upregulation of caspase-3 expression in human PC-3 cells at 1 to 50 nM measured after 4 to 8 days by Western blot analysis; assay type: functional, cell-based; details: dose 1-50 nM, time 4-8 day
PC-3 [31] = assay: Upregulation of CYP1A1 expression in human PC-3 cells at 1 to 50 nM measured after 4 to 8 days by Western blot analysis; assay type: functional, cell-based; details: dose 1-50 nM, time 4-8 day
PC-3 [32] = assay: Upregulation of BAX expression in human PC-3 cells at 1 to 50 nM measured after 6 days by Western blot analysis; assay type: functional, cell-based; details: dose 1-50 nM, time 6.0 day
PC-3 [33] = assay: Upregulation of BAX expression in human PC-3 cells at 1 to 50 nM measured after 8 days by Western blot analysis; assay type: functional, cell-based; details: dose 1-50 nM, time 8.0 day

Work on `CC[C@H](C)[C@@H]([C@@H](CC(=O)N1CCC[C@H]1[C@H](OC)[C@@H](C)C(=O)N[C@@H](Cc1ccccc1)Cn1cc(C(=O)O)nn1)OC)N(C)C(=O)[C@@H](NC(=O)[C@H](C(C)C)N(C)C)C(C)C` yielded an IC50 (PANC-1) of 52 nM, an IC50 (MDA-MB-231) of 93.9 nM and an IC50 (NCI-H1299) of 137 nM. The IC50 (PC-3 [1]) was 15.7 nM and the IC50 at 8 days [2] was 39.2 nM.
Work on `CC[C@H](C)[C@@H]([C@@H](CC(=O)N1CCC[C@H]1[C@H](OC)[C@@H](C)C(=O)N[C@@H](Cc1ccccc1)Cn1cc(CN)nn1)OC)N(C)C(=O)[C@@H](NC(=O)[C@H](C(C)C)N(C)C)C(C)C` yielded an IC50 (PANC-1) of 10.4 nM, an IC50 (MDA-MB-231) of 94.6 nM and an IC50 (NCI-H1299) of 18.7 nM. The IC50 (PC-3 [1]) was 15.5 nM and the IC50 at 8 days [2] was 73.7 nM.
`CC[C@H](C)[C@@H]([C@@H](CC(=O)N1CCC[C@H]1[C@H](OC)[C@@H](C)C(=O)N[C@@H](Cc1ccccc1)Cn1cc(CO)nn1)OC)N(C)C(=O)[C@@H](NC(=O)[C@H](C(C)C)N(C)C)C(C)C` showed an IC50 (PANC-1) of 4.7 nM, an IC50 (MDA-MB-231) of 63.4 nM and an IC50 (NCI-H1299) of 7.8 nM. The IC50 (PC-3 [1]) was 10.9 nM and the IC50 at 8 days [2] was 51.5 nM.
`CC[C@H](C)[C@@H]([C@@H](CC(=O)N1CCC[C@H]1[C@H](OC)[C@@H](C)C(=O)N[C@@H](Cc1ccccc1)c1nc(CN)cs1)OC)N(C)C(=O)[C@@H](NC(=O)[C@H](C(C)C)N(C)C)C(C)C` gave an IC50 (PANC-1) of 0.2 nM, an IC50 (MDA-MB-231) of 36.2 nM and an IC50 (NCI-H1299) of 3.1 nM. It also gave an IC50 (PC-3 [1]) of 0.9 nM, an IC50 at 8 days [2] of 38.5 nM and an Activity (PC-3 [3]) of 77.1%. It also gave an Activity (PC-3 [4]) of 69.8%, an Activity (PC-3 [5]) of 64.5% and an Activity (PC-3 [6]) of 14.5%. For the same compound, the Activity (PC-3 [7]) was 19.1%, the Activity (PC-3 [8]) was 17.8% and the Activity (PC-3 [9]) was 9.06%. It also gave an Activity (PC-3 [10]) of 12%, an Activity (PC-3 [11]) of 18.5% and an Activity (PC-3 [12]) of 35.5%. The Activity (PC-3 [13]) was 59.6%, the Activity (PC-3 [14]) was 59.2% and the Activity (PC-3 [15]) was 29.5%. For the same compound, the Activity (PC-3 [16]) was 26.4%, the Activity (PC-3 [17]) was 29.3% and the Activity (PC-3 [18]) was 36.5%. The Activity (PC-3 [19]) was 15.3%, the Activity (PC-3 [20]) was 12.8% and the Activity (PC-3 [21]) was 65.9%. For the same compound, the Activity (PC-3 [22]) was 43.3%, the Activity (PC-3 [23]) was 38.1% and the Activity (PC-3 [24]) was 26.1%. The Activity (PC-3 [25]) was 34.1%, the Activity (PC-3 [26]) was 40.9% and the Activity (PC-3 [27]) was 9.28%. For the same compound, the Activity (PC-3 [28]) was 24%, the Activity (PC-3 [29]) was 22.9% and the Activity (PC-3 [30]) was “Active”. For the same compound, the Activity (PC-3 [31]) was “Active”, the Activity (PC-3 [32]) was “Active” and the Activity (PC-3 [33]) was “inactive”.
Compound `CC[C@H](C)[C@@H]([C@@H](CC(=O)N1CCC[C@H]1[C@H](OC)[C@@H](C)C(=O)N[C@@H](Cc1ccccc1)Cn1cc(CNC)nn1)OC)N(C)C(=O)[C@@H](NC(=O)[C@H](C(C)C)N(C)C)C(C)C` has an IC50 (PANC-1) of 1.3 nM, an IC50 (MDA-MB-231) of 19.8 nM and an IC50 (NCI-H1299) of 4.7 nM. It also gave an IC50 (PC-3 [1]) of 8.9 nM and an IC50 at 8 days [2] of 38.4 nM.
